{"source": "patent US4039660A", "about": "“Antibiotic Y-G19Z D3 and the production thereof” (Yamanouchi Pharmaceutical Co., Ltd., priority 1974, dated 1977)", "test_in_all_cases": "Inhibition zone, disc on seeded Heart infusion agar", "type_in_all_cases": "cell-based", "key": {"Proteus morganii": {"system": "Proteus morganii", "details": "Morganella morganii, disc dipped in 125 mcg/ml solution, read-out: diameter of the inhibition zone", "text": "(§1) Antimicrobial activities of Y-G19ZD3 in comparison with those of Cephalosporin C against various microorganisms are shown in Table 3. The figure indicates the diameter (mm) of the inhibition zone obtained with a disc dipped in 125 mcg/ml solution on Heart infusion agar seeded with each organism."}, "[1]": {"system": "Basillus subtilis ATCC 6633", "details": "read-out: diameter of the inhibition zone", "text": "as §1"}, "Proteus vulgaris": {"system": "Proteus vulgaris", "details": "disc dipped in 125 mcg/ml solution, read-out: diameter of the inhibition zone", "text": "as §1"}, "[2]": {"system": "Proteus mirabilis IMF-OM9", "details": "IMFOM9, read-out: diameter of the inhibition zone", "text": "as §1"}, "Sarcina lutea ATCC 9941": {"system": "Sarcina lutea ATCC 9941", "details": "Micrococcus luteus, ATCC9941, read-out: diameter of the inhibition zone", "text": "as §1"}, "[3]": {"system": "Staphylococcus aureus 209 P", "details": "disc dipped in 125 mcg/ml solution, read-out: diameter of the inhibition zone", "text": "as §1"}, "Klebsiella pneumoniae": {"system": "Klebsiella pneumoniae", "details": "disc dipped in 125 mcg/ml solution, read-out: diameter of the inhibition zone", "text": "as §1"}}}
{"molecule": "CC(=O)OCC1=C(C(=O)O)N2C(=O)[C@@H](NC(=O)CCC[C@@H](N)C(=O)O)[C@H]2SC1", "note": "[Cephalosporin C]", "values": [{"measurement": "zone of inhibition at 125 µg/mL", "setting": "Proteus morganii", "result": 0, "unit": "mm"}, {"measurement": "zone of inhibition at 125 µg/mL", "setting": "[1]", "result": 13.5, "unit": "mm"}, {"measurement": "zone of inhibition at 125 µg/mL", "setting": "Proteus vulgaris", "result": 0, "unit": "mm"}, {"measurement": "zone of inhibition at 125 µg/mL", "setting": "[2]", "result": 17.6, "unit": "mm"}, {"measurement": "zone of inhibition at 125 µg/mL", "setting": "Sarcina lutea ATCC 9941", "result": 0, "unit": "mm"}, {"measurement": "zone of inhibition at 125 µg/mL", "setting": "[3]", "result": 0, "unit": "mm"}, {"measurement": "zone of inhibition at 125 µg/mL", "setting": "Klebsiella pneumoniae", "result": 0, "unit": "mm"}]}
